Data as given in the OPERA property sets (Mansouri et al. 2018).
One block for each compound: values may come before it.

SMILES: O=C(O)C=Cc1ccc([N+](=O)[O-])o1
logP: 0.68

SMILES: CC(C)(C)NC(=O)C=Cc1ccc([N+](=O)[O-])o1
logP: 2.33

SMILES: CCC(C)OC(=O)C=Cc1ccc([N+](=O)[O-])o1 (stereo unspecified)
logP: 3.09

SMILES: CCOC(=O)C(=Cc1ccc([N+](=O)[O-])o1)C(=O)OCC
logP: 2.5

SMILES: CCCCCOC(=O)C=Cc1ccc([N+](=O)[O-])o1
logP: 3.4

SMILES: COC(=O)C(=Cc1ccco1)[N+](=O)[O-]
logP: 1.88

SMILES: CC(C)(C)CNC(=O)C=Cc1ccc([N+](=O)[O-])o1
logP: 2.61

SMILES: COC(=O)C(=Cc1ccc(I)o1)[N+](=O)[O-]
logP: 3

SMILES: CCCCNC(=O)C=Cc1ccc([N+](=O)[O-])o1
logP: 2.36

SMILES: COC(=O)C(=Cc1ccc(C(=O)OC)o1)[N+](=O)[O-]
logP: 1.87

SMILES: CNC(=O)C=Cc1ccc([N+](=O)[O-])o1
logP: 0.98

SMILES: CN(C)C(=O)C=Cc1ccc([N+](=O)[O-])o1
logP: 0.82

SMILES: O=[N+]([O-])C=Cc1ccc([N+](=O)[O-])o1
logP: 1.3

Second part, the compound after the results:

logP: 2.1
SMILES: CCOC(=O)C=Cc1ccc([N+](=O)[O-])o1

logP: 2.83
SMILES: CCCCOC(=O)C=Cc1ccc([N+](=O)[O-])o1

logP: 2.23
SMILES: CC(C)CNC(=O)C=Cc1ccc([N+](=O)[O-])o1

logP: 1.39
SMILES: CCNC(=O)C=Cc1ccc([N+](=O)[O-])o1

logP: 1.61
SMILES: C=Cc1ccc([N+](=O)[O-])o1

logP: 1.05
SMILES: N#CC=Cc1ccc([N+](=O)[O-])o1

logP: 2.44
SMILES: COC(=O)C(=Cc1ccc(C)o1)[N+](=O)[O-]

logP: 3.06
SMILES: CC(C)(C)OC(=O)C=Cc1ccc([N+](=O)[O-])o1

logP: 1.86
SMILES: CCCNC(=O)C=Cc1ccc([N+](=O)[O-])o1

logP: 1.65
SMILES: COC(=O)C=Cc1ccc([N+](=O)[O-])o1

logP: 1.6
SMILES: COC(=O)C(=Cc1ccc([N+](=O)[O-])o1)[N+](=O)[O-]

logP: 3.14
SMILES: CC(C)COC(=O)C=Cc1ccc([N+](=O)[O-])o1

logP: 2.74
SMILES: COC(=O)C(=Cc1ccc(Br)o1)[N+](=O)[O-]

logP: 1.88
SMILES: O=[N+]([O-])c1ccc(C=CS(=O)(=O)c2ccccc2)o1

logP: 2.45
SMILES: O=[N+]([O-])c1ccc(C=CBr)o1

logP: 2.67
SMILES: CCCOC(=O)C=Cc1ccc([N+](=O)[O-])o1

logP: 2.28
SMILES: CCC(C)NC(=O)C=Cc1ccc([N+](=O)[O-])o1 (stereo unspecified)

logP: 2.64
SMILES: CC(C)OC(=O)C=Cc1ccc([N+](=O)[O-])o1
